According to ChEMBL document CHEMBL1201862, “PubChem BioAssay data set” (2004):
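Dose response: 5 concentrations. Exposure: 48 h. Format: 96-well plates. Endpoint: linear interpolation; highest concentration if not reached. Here, GI50 denotes the concentration required for 50% inhibition of growth.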 Activity calls are given as the source filed them. Rule as the data show it: active = GI50 up to about 1.1 µM and inactive = higher.

Legend:
Experiment in all cases: growth of human tumour cells (NCI), 48 h
786-0 = test system: 786-0
NCI/ADR-RES = test system: NCI/ADR-RES
OVCAR-8 = test system: OVCAR-8
SNB-19 = test system: SNB-19
SNB-75 = test system: SNB-75
ACHN = test system: ACHN
CCRF-CEM = test system: CCRF-CEM
RPMI-8226 = test system: RPMI-8226
OVCAR-4 = test system: OVCAR-4
M14 = test system: M14
MCF7 = test system: MCF7
A549 = test system: A549
SF-295 = test system: SF-295
NCI-H23 = test system: NCI-H23
CAKI-1 = test system: CAKI-1
HL-60 = test system: HL-60
UO-31 = test system: UO-31
DU-145 = test system: DU-145
HOP-62 = test system: HOP-62
MDA-MB-231 = test system: MDA-MB-231
SK-MEL-5 = test system: SK-MEL-5
SF-268 = test system: SF-268
Hs-578T = test system: Hs-578T
NCI-H522 = test system: NCI-H522
SK-MEL-28 = test system: SK-MEL-28
K562 = test system: K562
TK-10 = test system: TK-10
SK-OV-3 = test system: SK-OV-3
HCT-15 = test system: HCT-15
NCI-H226 = test system: NCI-H226
SR = test system: SR
BT-549 = test system: BT-549
MDA-MB-435 = test system: MDA-MB-435
IGROV-1 = test system: IGROV-1
KM12 = test system: KM12
MOLT-4 = test system: MOLT-4
UACC-257 = test system: UACC-257
HCC 2998 = test system: HCC 2998
EKVX = test system: EKVX
SN12C = test system: SN12C
T47D = test system: T47D
OVCAR-3 = test system: OVCAR-3
COLO 205 = test system: COLO 205
SW-620 = test system: SW-620
NCI-H460 = test system: NCI-H460
U-251 = test system: U-251
PC-3 = test system: PC-3
SF-539 = test system: SF-539
RXF 393 = test system: RXF 393
UACC-62 = test system: UACC-62
HCT-116 = test system: HCT-116
MDA-N = test system: MDA-N

Q: Which results are given for `O=C1/C(=C/c2ccc([N+](=O)[O-])cc2)Oc2cc(O)ccc21`?
A: GI50 (786-0): 22.2 µM (inactive); GI50 (NCI/ADR-RES): 28.8 µM (inactive); GI50 (OVCAR-8): 29.6 µM (inactive); GI50 (SNB-19): 29.1 µM (inactive); GI50 (SNB-75): 32.2 µM (inactive); GI50 (ACHN): 25.4 µM (inactive); GI50 (CCRF-CEM): 31 µM (inactive); GI50 (RPMI-8226): 22.5 µM (inactive); GI50 (OVCAR-4): 39.6 µM (inactive); GI50 (M14): 43.1 µM (inactive); GI50 (MCF7): 27.2 µM (inactive); GI50 (A549): 28.8 µM (inactive); GI50 (SF-295): 37.8 µM (inactive); GI50 (NCI-H23): 42.1 µM (inactive); GI50 (CAKI-1): 23.6 µM (inactive); GI50 (HL-60): 17.5 µM (inactive); GI50 (UO-31): 17.7 µM (inactive); GI50 (DU-145): 33.7 µM (inactive); GI50 (HOP-62): 31.2 µM (inactive); GI50 (MDA-MB-231): 26.5 µM (inactive); GI50 (SK-MEL-5): 21 µM (inactive); GI50 (SF-268): 61 µM (inactive); GI50 (Hs-578T): 17.1 µM (inactive); GI50 (NCI-H522): 24.8 µM (inactive); GI50 (SK-MEL-28): 41 µM (inactive); GI50 (K562): 17.9 µM (inactive); GI50 (TK-10): 27.4 µM (inactive); GI50 (SK-OV-3): 25.1 µM (inactive); GI50 (HCT-15): 25.1 µM; GI50 (NCI-H226): 13.2 µM (inactive); GI50 (SR): 16.9 µM (inactive); GI50 (BT-549): 25.9 µM (inactive); GI50 (MDA-MB-435): 30.5 µM (inactive); GI50 (IGROV-1): 29.1 µM (inactive); GI50 (KM12): 36.5 µM (inactive); GI50 (MOLT-4): 14.6 µM (inactive); GI50 (UACC-257): 37.7 µM (inactive); GI50 (HCC 2998): 34.6 µM (inactive); GI50 (EKVX): 33.7 µM (inactive); GI50 (SN12C): 26.6 µM (inactive); GI50 (T47D): 28.6 µM (inactive); GI50 (OVCAR-3): 27.5 µM (inactive); GI50 (COLO 205): > 10 µM (inactive); GI50 (SW-620): 41 µM (inactive); GI50 (NCI-H460): 31.5 µM (inactive); GI50 (U-251): 28.1 µM (inactive); GI50 (PC-3): 29.3 µM (inactive); GI50 (SF-539): 23.4 µM (inactive); GI50 (RXF 393): 45 µM (inactive); GI50 (UACC-62): 33 µM (inactive); GI50 (HCT-116): 26.2 µM (inactive); GI50 (MDA-N): 23.2 µM (inactive)
